Experimental data published in patent US12612372B2, “Oxopyridazinyl-phenyl-carbonohydrazonoyl dicyanide compound and use thereof” (KOREA INSTITUTE OF SCIENCE AND TECHNOLOGY, priority 2020, dated 2026).
Read-outs that look alike come from different tables or passages of the source.

Legend:
tau protein = target: T1, tau protein (Homo sapiens, UniProt P10636); experiment: Tau-BiFC cell model, Forskolin-induced tau protein aggregation; assay type: cell-based; settings: for Tau BiFC in cells Response (%, @10 μM): 10 μM compound, BiFC fluorescence relative to Forskolin-only group (100% tau protein-aggregated state)
T1 construct: fused on or other part: Split Venus fragments VN173 and VC155, each fused to one copy of tau as BiFC reporter halves
T1 sequence (P10636 2-441 isoform P10636-8 limits assumed): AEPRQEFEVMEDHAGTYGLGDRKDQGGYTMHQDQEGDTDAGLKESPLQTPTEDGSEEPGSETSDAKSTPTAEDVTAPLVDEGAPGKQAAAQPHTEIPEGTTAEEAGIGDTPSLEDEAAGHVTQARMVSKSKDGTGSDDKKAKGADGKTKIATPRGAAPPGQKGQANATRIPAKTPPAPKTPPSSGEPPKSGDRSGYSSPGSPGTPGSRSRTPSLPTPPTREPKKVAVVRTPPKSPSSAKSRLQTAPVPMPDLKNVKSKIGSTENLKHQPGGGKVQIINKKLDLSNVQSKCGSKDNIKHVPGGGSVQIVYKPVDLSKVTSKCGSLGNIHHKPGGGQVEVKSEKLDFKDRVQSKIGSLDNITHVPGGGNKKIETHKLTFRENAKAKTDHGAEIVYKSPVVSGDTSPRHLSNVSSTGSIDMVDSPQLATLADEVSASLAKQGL
Experimental: (§1) In order to select novel tau protein aggregation—inhibiting substances, tau-BiFC cell model, in which formation of tau oligomers in living cells is easily observed, was used. Tau-BiFC cells were aliquoted into a 384-well plate. […] After 48 hours, nuclei in the cells were stained using Hoechst (at a treatment concentration of 2 μg/mL), and BiFC fluorescence intensity was automatically measured using Operetta (PerkinElmer) to count stained nuclei in each well out of the entire well plate. […] Furthermore, the degree of cytotoxicity induced by the newly synthesized compound was also measured based on the 100% cell viability of the group treated only with Forskolin as a reference, and the cytotoxicity value of each compound was calculated using the equation “(number of stained nuclei in group treated with compound/number of stained nuclei in group treated with Forskolin)×100”.
(§2) After 48 hours, tau protein aggregation reaction and degrees of cytotoxicity were analyzed by observing images of the cells. IC50 and toxicity of the compounds were analyzed by nonlinear regression analysis of Prism software (Graph Pad).

Tau-BiFC cells = experiment: Cell viability (stained nuclei count) in tau-BiFC cells
Experimental: as §1, §2

[1] = 10 μM compound, stained nuclei relative to Forskolin-only group (100%), 48 hours
[2] = tau-BiFC cells, Forskolin 30 μM, 48 hours, read-out: Tau BiFC in cells IC50

Row | Compound | Tau BiFC in cells Response (%, @10 μM) (tau protein; 48 hours) | IC50 (tau protein; Tau BiFC in cells IC50, tau-BiFC cells, Forskolin 30 μM, 48 hours) | Cell viability (%, @10 μM) (Tau-BiFC cells; [1]) | IC50 (tau protein; [2]) | Cell viability (%, @10 μM) (Tau-BiFC cells; 48 h, 10 μM) | IC50 (tau protein)
1 | N#CC(C#N)=NNc1ccc(-c2ccc(=O)[nH]n2)cc1 [Comparative Example 1, reference compound] | 10.1% | 16.8 µM | 130.3% |  |  | 
2 | Cc1cc(=O)[nH]nc1-c1ccc(NN=C(C#N)C#N)cc1 [Comparative Example 2, reference compound] | 1.8% |  | 128.6% | 3.5 µM |  | 
3 | Cc1cc(-c2ccc(NN=C(C#N)C#N)cc2)n[nH]c1=O [Comparative Example 3, reference compound] | 37.11% |  | 113.1% | > 10 µM |  | 
4 | CC1CC(=O)NN=C1c1ccc(NN=C(C#N)C#N)cc1 (stereo not drawn) [Comparative Example 4, reference compound] | 45.7% |  | 120.3% | > 10 µM |  | 
5 | N#CC(C#N)=NNc1ccc(-n2ncccc2=O)cc1 [Comparative Example 5, reference compound] | 35.1% |  | 124.2% | > 10 µM |  | 
6 | Cc1ccc(=O)n(-c2ccc(NN=C(C#N)C#N)cc2)n1 [Comparative Example 6, reference compound] | 46.7% |  | 114.9% | > 10 µM |  | 
7 | Cc1cnn(-c2ccc(NN=C(C#N)C#N)cc2)c(=O)c1 [Comparative Example 7, reference compound] | 19.4% |  | 102.3% | 4.5 µM |  | 
8 | Cc1ccnn(-c2ccc(NN=C(C#N)C#N)cc2)c1=O [Comparative Example 8, reference compound] | 0% |  |  | 2.5 µM | 110.1% | 
9 | COc1ccc(N2N=C(c3ccc(NN=C(C#N)C#N)cc3)C(C)CC2=O)cc1 (stereo not drawn) [Example 7, (4-(1-(4-methoxyphenyl)-4-methyl-6-oxo-1,4,5,6-tetrahydropyridazin-3-yl)phenyl)carbonohydrazonoyl dicyanide] | 2.3% |  | 89.3% |  |  | 0.94 µM
10 | C[C@@H]1CC(=O)NN=C1c1ccc(NN=C(C#N)C#N)cc1 [Levosimendan, reference compound] | 9.58% |  | 73.21% | 1.44 µM |  | 
